Results from publication PMC11635519, “A High-Throughput Method for Screening Peptide Activators of G-Protein-Coupled Receptors” (ACS Omega, 2024).
Entries after “also recorded” stand apart in the source; their conditions may differ. Where a SMILES comes first, the peptide text is derived from it.

Key:
hGLP1R = target: T1, hGLP1R (Homo sapiens, UniProt P43220); assay: HTRF cAMP assay in GLP-1R-expressing HEK293 cells; assay type: cell-based; conditions: at higher concentrations, HEK293 stably expressing GLP-1R, 4 h at 37 °C
T1 construct: expressed in transfected cells
Protocol: cAMP accumulation was measured using a HTRF cAMP-Gs Dynamic kit (Cisbio Bioassays, 62AM4PEB) according to the manufacturer’s instructions. Briefly, HEK293 cells expressing hGLP1R were trypsinized from subconfluent culture and seeded in a 96-well low-volume plate at a density of 2000 cells per well. […] After 4 h of incubation at 37 °C, cAMP d2 reagent and cAMP Eu-Cryptate antibodies were added to each well. After incubation at room temperature for 30 min in the dark, the plate was read using a Synergy 2 plate reader (BioTek) with excitation at 330 nm and emission at 620 and 665 nm. Data were used to calculate the EC50 value by fitting it to a nonlinear sigmoidal curve using GraphPad Prism 8.

[1] = Circular dichroism secondary structure determination; conditions: acetonitrile:PBS (1:2), 20 μM peptide, 0.1 cm cuvette, 10 accumulations; for Others (secondary structure content) / α-helix content / β-sheet content: Table S2, estimated by BeStSel from CD; for α-helical structure content: circular dichroism
Protocol: We next performed circular dichroism (CD) analysis of the peptides in solution to determine the peptides’ secondary structure.
Peptide secondary structure determination was carried out using a Jasco J-720 spectropolarimeter (Table S2). Lyophilized peptide powders were dissolved in acetonitrile:PBS (1:2), and CD spectra were read immediately. […] Samples were read using a 0.1 cm cuvette path length with 10 accumulations per run and 50 nm/min scanning speed. All spectra were background subtracted.

GLP-1R [2] = assay: cAMP assay (TR-FRET) for validating GLP-1R activating peptides from screening; assay type: cell-based; conditions: cells stably expressing GLP-1R and CRE, transfected with peptide-expressing construct, 24 h + 24 h; TR-FRET cAMP-Gs Dynamic kit
From the text: We next screened the GPI-AP-peptide library using FACS to discover novel GLP-1R activators. FACS is a widely used flow cytometric technique that isolates specific cell populations from mixtures of different cells. Briefly, when a potential peptide activator stimulates GLP-1R, there is an intracellular boost of cAMP levels. Subsequently, cAMP activates CREB, which binds to CRE and triggers transcription of the GFP/luciferase reporter gene. […] We chose the top three activating peptides found throughout the screening for further validation testing (PepA3, Pep1, and Pep2).
Figure 3 Discovery of novel agonists of the GLP-1R using our screening platform. (A) Fluorescence-activated cell analysis and sorting of HEK293 cells transfected with the GLP-1R. […] (B) Confocal microscopy of HEK293 cells transfected with the GLP-1R treated with different peptides. […] The increase in the cyclic AMP concentration was quantified to evaluate the peptides’ activities.
The stable cell lines were prepared by the infection of HEK293T cells with the pLJM1 vector with GLP-1R and CRE. The cells were selected with the hygromycin antibiotic. […] The culture medium was changed, and cells were grown for 24 h. The cAMP cell content was estimated using a homogeneous time-resolved fluorescence resonance energy transfer (TR-FRET) immunoassay using a cAMP-Gs Dynamic kit (PerkinElmer) following manufacturer’s protocol.

GLP-1R [3] = assay: FACS analysis of GFP-positive cells (CRE-GFP reporter), GLP-1R-expressing HEK293; assay type: cell-based; conditions: HEK293 cells transfected with GLP-1R
Protocol: Cells were harvested by trypsin treatment and centrifuged at 500g for 5 min. The pellet was resuspended in ice-cold PBS and centrifuged again. The pellet was then resuspended at a concentration of 4 × 10^6 cells/mL in the PBS sorting buffer containing 100 Kunitz DNase I/mL, 10 μg/mL propidium iodide (Sigma), and 2% FBS. The sorting solution was also supplemented with either 10 μM forskolin, 100 μM 5,6-dichlorobenzimidazole riboside (DRB, Sigma), 10 μM forskolin (Sigma), and 100 μM DRB or DMSO, as a control. The cells were then sent through a 40 μm filter to remove large clumps and loaded into either a FACScan Flow Cytometer (BD Bioscience) for cell analysis or a FACSVantage SE cell sorter (BD Bioscience) for cell sorting. The cells with positive propidium iodide staining, i.e., the dead cells, were first eliminated from the analysis or sorting pool. For cell sorting, the desired population, either the EGFP brightest or least bright ones according to the purpose of experiments (see Results), was sorted into either 15 mL conical tubes or 96-well plates, which contained complete DMEM culture media.

CCR2 = assay: CRE-luciferase reporter assay of MCP1 fusion constructs (platform validation); assay type: cell-based; conditions: HEK293T stably expressing CCR2 and Gaussia luciferase reporter, luciferase induced by 10 μM forskolin
From the text: Figure 2 Validation of the screening platform using the MCP1 peptide. (A) Genetic construction that encodes the fusion protein used to display library peptides on the cell surface. (B) Cell surface localization of the MCP1-GFP peptide and CCR2-mCherry receptor. MCP1-GFP peptide and CCR2-mCherry were localized at the cell surface when expressed separately. (C) MCP1-GFP peptide colocalized with CCR2-mCherry at the cell surface and distinct subcellular sites upon transient coexpression in HEK293T cells. (D) Evaluating the activity of different fusion proteins of the MCP1 peptide using a CRE-luciferase reporter assay. […] The activation of the different peptide variants was recorded through the inhibition of the luciferase expression induced by 10 μM forskolin.
MCP1-GFP and CCR2-mCherry were localized at the cell surface when expressed separately (Figure 2B). […] We then evaluated the activity of the different MCP1-GFP constructions using a CRE-luciferase reporter assay. As a negative control, we used a construction where the MCP1 peptide is not fused to the signal or GPI-AP sequences.
HEK293T cells stably expressing CCR2 and the reporter Gaussia Luciferase construct were trypsinized from subconfluent culture and seeded in a 96-well plate at a density of 5000 cells per well. […] Immediately after adding the reagent, samples were read using a luminometer with a 480 nm filter.

CCR2-mCherry = assay: FRET colocalization of MCP1-GFP with CCR2-mCherry at the cell surface; assay type: cell-based; conditions: MCP1-GFP and CCR2-mCherry; transient coexpression in HEK293 cells; FRET assays
Protocol: To validate our screening platform, we chose the interaction between the chemokine MCP1 peptide and C–C chemokine receptor 2 (CCR2).[10],[11] We designed a structure that encodes a fusion protein to display the MCP1 peptide on the cell surface. The Ly6/neurotoxin (LYNX1) signal and GPI-AP sequences were present in this fusion protein’s N- and C-terminal regions, respectively. A Flag tag or GFP sequence was added upstream of the GPI-AP sequence. We also investigated the effect of various linkers between MCP1 and FLAG, as well as the FLAG and GPI-AP sequences (Figure 2A). All of the different MCP1-GFP constructions and CCR2 receptor fused with the mCherry fluorescent protein (CCR2-mCherry) were cloned into the pLJM1 nGFP lentiviral vector to evaluate their expression in human embryonic kidney 293 (HEK293) cells.
Figure 2 Validation of the screening platform using the MCP1 peptide. (A) Genetic construction that encodes the fusion protein used to display library peptides on the cell surface. (B) Cell surface localization of the MCP1-GFP peptide and CCR2-mCherry receptor. MCP1-GFP peptide and CCR2-mCherry were localized at the cell surface when expressed separately. […]
MCP1-GFP and CCR2-mCherry were localized at the cell surface when expressed separately (Figure 2B). […] We then evaluated the activity of the different MCP1-GFP constructions using a CRE-luciferase reporter assay. […]

[4] = target: glucagon-like peptide-1 receptor (human) (UniProt P43220)
Chain of glucagon-like peptide-1 receptor (human) (P43220 24-463): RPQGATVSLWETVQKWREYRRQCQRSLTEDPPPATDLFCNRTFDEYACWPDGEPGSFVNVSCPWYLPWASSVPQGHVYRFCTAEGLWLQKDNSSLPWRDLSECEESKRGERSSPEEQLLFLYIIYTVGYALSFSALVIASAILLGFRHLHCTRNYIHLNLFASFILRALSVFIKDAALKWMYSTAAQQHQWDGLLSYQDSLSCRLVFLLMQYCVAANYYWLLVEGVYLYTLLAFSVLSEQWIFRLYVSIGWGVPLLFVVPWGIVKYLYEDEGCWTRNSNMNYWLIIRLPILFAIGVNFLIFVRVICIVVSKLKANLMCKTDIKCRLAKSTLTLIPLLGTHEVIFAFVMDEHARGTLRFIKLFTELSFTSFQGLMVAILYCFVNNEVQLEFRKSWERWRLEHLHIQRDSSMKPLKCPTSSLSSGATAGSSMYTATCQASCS

T1 sequence (P43220 24-463): as above

Others (secondary structure content) [1] [%] | α-helix content [1] [%] | β-sheet content [1] [%] | α-helical structure content [1] | Compound | efficacy for GLP-1R activation relative to GLP-1 (hGLP1R) | stimulation of GLP-1R-expressing cells and intracellular cAMP increase (GLP-1R [2]) | also measured
56.5 | 30.1 | 13.3 | 30.1–46.1% | CC[C@H](C)[C@H](N)C(=O)N[C@@H](CS)C(=O)N[C@@H](CCC(=O)O)C(=O)NCC(=O)N[C@@H](CC(C)C)C(=O)N[C@@H](CCCNC(=N)N)C(=O)N[C@@H](CCC(=O)O)C(=O)N[C@H](C(=O)N[C@@H](CS)C(=O)N[C@@H](CCC(N)=O)C(=O)N1CCC[C@H]1C(=O)N[C@@H](C)C(=O)N[C@@H](Cc1ccccc1)C(=O)N[C@@H](CC(=O)O)C(=O)N[C@@H](C)C(=O)N[C@H](C(=O)N[C@@H](CC(=O)O)C(=O)N[C@@H](CCSC)C(=O)N[C@@H](C)C(=O)N[C@@H](Cc1c[nH]c2ccccc12)C(=O)N1CCC[C@H]1C(=O)N[C@@H](Cc1ccc(O)cc1)C(=O)N[C@@H](Cc1ccccc1)C(=O)N[C@@H](CC(C)C)C(=O)N[C@@H](CC(=O)O)C(=O)N[C@@H](CS)C(=O)N[C@@H](Cc1c[nH]cn1)C(=O)N[C@@H](CCCNC(=N)N)C(=O)N[C@@H](Cc1ccc(O)cc1)C(=O)N[C@@H](Cc1ccccc1)C(=O)N[C@H](C(=O)N[C@@H](CCCNC(=N)N)C(=O)N[C@@H](CCC(=O)O)C(=O)O)[C@@H](C)O)[C@@H](C)CC)C(C)C [PepA2] (H-ICEGLREVCQPAFDAIDMAWPYFLDCHRYFTRE-OH; N-terminus and C-terminus assumed) | able to stimulate GLP-1R activation to a level comparable to that of GLP-1 |  | 
46.7 | 42.9 | 10.4 | 30.1–46.1% | CC[C@H](C)[C@H](NC(=O)[C@H](C)NC(=O)[C@H](CC(=O)O)NC(=O)[C@H](Cc1ccccc1)NC(=O)[C@H](C)NC(=O)[C@@H]1CCCN1C(=O)[C@H](CCC(N)=O)NC(=O)[C@H](CS)NC(=O)[C@@H](NC(=O)[C@H](CCC(=O)O)NC(=O)[C@H](CCCNC(=N)N)NC(=O)[C@H](CC(C)C)NC(=O)CNC(=O)[C@H](CCC(=O)O)NC(=O)[C@@H](N)CS)C(C)C)C(=O)N[C@@H](CC(=O)O)C(=O)N[C@@H](CCSC)C(=O)N[C@@H](C)C(=O)N[C@@H](Cc1c[nH]c2ccccc12)C(=O)N1CCC[C@H]1C(=O)N[C@@H](Cc1ccc(O)cc1)C(=O)N[C@@H](Cc1ccccc1)C(=O)N[C@@H](CC(C)C)C(=O)N[C@@H](CC(=O)O)C(=O)N[C@@H](CS)C(=O)N[C@@H](Cc1c[nH]cn1)C(=O)N[C@@H](CCCNC(=N)N)C(=O)N[C@@H](Cc1ccc(O)cc1)C(=O)N[C@@H](Cc1ccccc1)C(=O)N[C@H](C(=O)N[C@@H](CCCNC(=N)N)C(=O)N[C@@H](CCC(=O)O)C(=O)O)[C@@H](C)O [PepA3] (H-CEGLREVCQPAFDAIDMAWPYFLDCHRYFTRE-OH; N-terminus and C-terminus assumed) | able to stimulate GLP-1R activation to a level comparable to that of GLP-1 | stimulated the GLP-1R-expressing HEK293 cells and increased the cAMP intracellular levels | 
45.4 | 46.1 | 8.5 | 30.1–46.1% | CC[C@H](C)[C@H](NC(=O)[C@H](C)NC(=O)[C@H](CC(=O)O)NC(=O)[C@H](Cc1ccccc1)NC(=O)[C@H](C)NC(=O)[C@@H]1CCCN1C(=O)[C@H](CCC(N)=O)NC(=O)[C@H](CS)NC(=O)[C@@H](NC(=O)[C@H](CCC(=O)O)NC(=O)[C@H](CCCNC(=N)N)NC(=O)[C@H](CC(C)C)NC(=O)CNC(=O)[C@H](CCC(=O)O)NC(=O)[C@H](CS)NC(=O)[C@@H](NC(=O)[C@@H](N)Cc1c[nH]cn1)[C@@H](C)CC)C(C)C)C(=O)N[C@@H](CC(=O)O)C(=O)N[C@@H](CCSC)C(=O)N[C@@H](C)C(=O)N[C@@H](Cc1c[nH]c2ccccc12)C(=O)N1CCC[C@H]1C(=O)N[C@@H](Cc1ccc(O)cc1)C(=O)N[C@@H](Cc1ccccc1)C(=O)N[C@@H](CC(C)C)C(=O)N[C@@H](CC(=O)O)C(=O)N[C@@H](CS)C(=O)N[C@@H](Cc1c[nH]cn1)C(=O)N[C@@H](CCCNC(=N)N)C(=O)N[C@@H](Cc1ccc(O)cc1)C(=O)N[C@@H](Cc1ccccc1)C(=O)N[C@H](C(=O)N[C@@H](CCCNC(=N)N)C(=O)N[C@@H](CCC(=O)O)C(=O)O)[C@@H](C)O [PepA] (H-HICEGLREVCQPAFDAIDMAWPYFLDCHRYFTRE-OH; N-terminus and C-terminus assumed) | able to stimulate GLP-1R activation to a level comparable to that of GLP-1 |  | 
 |  |  |  | C=C[C@@]1(C)CC(=O)[C@]2(O)[C@@]3(C)[C@@H](O)CCC(C)(C)[C@@H]3[C@H](O)[C@H](OC(C)=O)[C@@]2(C)O1 [forskolin] |  |  | GFP-positive cells versus no treatment (GLP-1R [3]): more GFP-positive cells
 |  |  |  | ELAELVPRLFRVASKTHRDLLEVNLQNGILFV [Pep1] |  | Only PepA3 stimulated the GLP-1R-expressing HEK293 cells | 
 |  |  |  | MCP1: chemokine MCP1 peptide displayed on the cell surface as fusion with LYNX1 signal and GPI-AP sequences |  |  | activation of CCR2 receptor (inhibition of forskolin-induced luciferase expression) (CCR2; MCP1 fused to the signal sequence and GPI-AP (all constructions), 6 h after transfection): activated the receptor in all the constructions where the peptide was fused to the signal sequence and GPI-AP; also recorded: activated the CCR2 receptor in all the constructions where the peptide was fused to the signal and GPI-AP sequences; activation of CCR2 receptor (inhibition of forskolin-induced luciferase expression) (CCR2; negative control: MCP1 not fused to the signal or GPI-AP sequences): did not activate the CCR2 receptor when the peptide was not fused to the signal sequence and GPI-AP; colocalization with CCR2 at the cell surface (CCR2-mCherry): colocalization of MCP1 and CCR2 at the cell surface
 |  |  |  | SGLAGHSVFLVPGLAAHPGSHSDQPPGVPSRR [Pep2] |  | Only PepA3 stimulated the GLP-1R-expressing HEK293 cells | 
 |  |  |  | glucagon-like peptide-1 (ligand) |  |  | EC50 of the decrease of the FRET signal in the HTRF cAMP assay, GLP-1R expressing HEK293 cells [4]: 540 pM
